# Columns and labels:
# rabbit blood coagulation = assay: Anticoagulation experiment in vitro: coagulation time of oxalated rabbit blood after adding CaCl2; settings: 37±0.5° C., x ± SD
# Description: 1. Method: A rabbit was weighed and injected with 3% sodium pentobarbital 1 mL/kg via an ear vein, and then anaesthetized. […] The resulting solution was shaken uniformly and put into a constant temperature water bath (37±0.5° C.). Every 30 seconds, the small test tubes were tilted slightly once, and the coagulation time was recorded (the test tubes were tilted slightly, if no blood bled, the time was recorded as coagulation time). The experimental results were collected and analyzed using Software SPSS. If P<0.05, the results has significant difference.
# rat arrhythmias = assay: Antiarrhythmic experiment: arrhythmia induced by 0.1% BaCl2 in rats, ECG monitored for 30 min; format: in vivo, Wistar rats; settings: for Arrhythmia duration: if not restored within 30 min, the record was 30 min
# Description: 1. Method: 60 male, healthy adult Wistar rats with body weight of 180-220 g were randomly divided into 6 groups, i.e., a normal saline group, a propylene glycol solvent gavage group, a propylene glycol solvent intravenous injection group, a puerarin injection group, a 7,2″-dehydrate puerarin gavage group, and a 7,2″-dehydrate puerarin intravenous injection group, with 10 rats each group. The intravenous injection was carried out one time a day for three consecutive days. The gavage was carried out two times a day for three consecutive days. The normal saline group was administered with equal volume of 0.9% NaCl injection. The dose of the propylene glycol solvent gavage group was 14.3% propylene glycol 1 mL/100 g. The dose of the propylene glycol solvent intravenous injection group was 40% propylene glycol 0.5 mL/100 g. The dose of the puerarin injection group was 50 mg/kg. The dose of the 7,2″-dehydrate puerarin gavage group was 60 mg/kg. The dose of the 7,2″-dehydrate puerarin intravenous injection group was 30 mg/kg. The rats were anesthetized with 10% chloral hydrate (0.35 mL/100 g) by intraperitoneal injection and fixed in the back. A BL-410 biological functional system was introduced to monitor the ECG changes of the rats. A femoral vein of the rats was exposed, a scalp needle inserted, and a constant speed syringe pump connected. 0.1% BaCl2 was pumped with a dose of 0.1 mL/100 g and a speed of 0.6 mL/min. From the injection of BaCl2 on, the ECGs were monitored and recorded within 30 min. The arrhythmia latency and arrhythmia duration were recorded (if not restored within 30 min, the record was 30 min). The experimental results were collected and analyzed using Software SPSS. If P<0.05, the results has significant difference.
# platelet aggregation = settings: in vitro, dose-dependent; read-out: IC50, inhibition on platelet aggregation in vitro; cited from earlier work
Compound,coagulation time (rabbit blood coagulation; 0.75 mg/mL (low dose)) [min],coagulation time (rabbit blood coagulation; 1.5 mg/mL (medium dose)) [min],coagulation time (rabbit blood coagulation; 3 mg/mL) [min],"Arrhythmia latency (rat arrhythmias; gavage, 60 mg/kg, two times a day for three days, x ± SD) [s]","Arrhythmia duration (rat arrhythmias; gavage, 60 mg/kg, x ± SD) [min]","Arrhythmia latency (rat arrhythmias; intravenous injection, 30 mg/kg, once a day for three days, x ± SD) [s]","Arrhythmia duration (rat arrhythmias; intravenous injection, 30 mg/kg, x ± SD) [min]","Arrhythmia duration (rat arrhythmias; puerarin injection group, 50 mg/kg) [min]","Arrhythmia latency (rat arrhythmias; puerarin injection group, 50 mg/kg, once a day for three days, x ± SD) [s]",IC50 (platelet aggregation) [µM]
"O=c1c(-c2ccc(O)cc2)coc2c3c(ccc12)O[C@@H]1[C@@H](O)[C@H](O)[C@@H](CO)O[C@@H]31 [7,2″-dehydrate puerarin]",14.7 ± 1.6,22.7 ± 2.6,38.5 ± 2.1,29.25 ± 5.12,2.09 ± 0.98,47.25 ± 19.87,17.75 ± 4.61,,,
O=c1c(-c2ccc(O)cc2)coc2c([C@@H]3O[C@H](CO)[C@@H](O)[C@H](O)[C@H]3O)c(O)ccc12 [Puerarin],,,15.3 ± 2.4,,,,,30,86.75 ± 42.55,
CC(=O)Oc1ccccc1C(=O)Oc1ccc2c(=O)c(-c3ccc(O)cc3)coc2c1[C@@H]1O[C@H](CO)[C@@H](O)[C@H](O)[C@H]1O [7-acetylsalicylic acyl puerarin],,,,,,,,,,910

# Reference: US8436155B2, “7,2″-dehydrate puerarin and its salts, preparation method and use thereof” (Shandong University, priority 2010, dated 2013)
